For 45 molecules, AC50 and activity change, negative = inhibition results are on record in PubChem BioAssay AID540268 (Broad Institute, 2011).

The source made the active and inactive calls. No rule for the calls is given here.

A short description of one experiment: reduced viability of parasite-Hsp90 expressing yeast – ATP luminescence, 48 h, cherry-picked samples, anti-malarial Hsp90 inhibitor project, dose response (AID 540268).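 As to activity change, negative = inhibition: 0% = neutral control wells and -100% = positive control wells.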 The note with it: yeast expressing the parasite Hsp90, ATP luminescence.
For `Oc1cc(Cl)ccc1Oc1ccc(Cl)cc1Cl`, the half-maximal activity concentration (AC50) (commonly the concentration at which the activity in the assay is half-maximal) is 7.54 µM.

Take `CCCCCCCCCCC[N+](C)(C)CC/C=C1/c2ccccc2Sc2ccc(Cl)cc21`: the AC50 is 7.99 µM.

On to `CC1=NN(c2nc3ccccc3[nH]2)C(=O)/C1=C/N(C)C`, for which the AC50 is 2.23 µM.

On to `O=C1C2C3C=CC(CNS(=O)(=O)c4ccccc4[N+](=O)[O-])(O3)C2C(=O)N1c1ccccc1` (stereo not given), for which the AC50 is 10.3 µM.

`O=C(Nc1nc(-c2ccccn2)cs1)C1COc2ccccc2O1` (stereo not given): the AC50 was 8.85 µM.

`CC1=CC(=O)C=C(C)C1=NOS(=O)(=O)c1ccccc1`: the AC50 was 1.4 µM.

As to `Cc1ccc(C(C[N+](=O)[O-])Sc2ccc(N)cc2)cc1` (stereo not given), the AC50 is 6.83 µM.

Consider `Nc1cc2c(cc1[N+](=O)[O-])-c1ccccc1C2=NO`, for which the concentration at half-maximal activity (AC50) is 8.64 µM.

Turning to `Cc1ccc(-c2nc3cccnc3s2)cc1NS(=O)(=O)c1ccc2c(c1)OCCO2`, the AC50 is 4.12 µM.

For `CN(C)CC1Oc2ccccc2OC1(O)c1ccccc1` (stereo not given), the half-maximal activity concentration (AC50) was 2.98 µM.

Regarding `C[C@@]12C(=O)Nc3ccc(Br)cc3C(=O)N1[C@H]1c3ccccc3OC[C@@H]1[C@@H]2c1ccccc1`, the concentration at half-maximal activity (AC50) was 0.404 µM.

For `O=C(C#Cc1ccccc1)c1cccc([N+](=O)[O-])c1`, the AC50 was 0.291 µM.

With `O=C(Nc1ccc(Cl)cc1Cl)c1cccc(N2C(=O)C=CC2=O)c1`, the AC50 was less than 0.195 µM.

For the molecule `Cc1c(C(=O)NCCSCc2cccc(C(F)(F)F)c2)cnn1-c1ccc(Cl)cc1`, the AC50 was 8.59 µM.

Take `O=Cc1ccc(O)c2ncccc12`: the AC50 was less than 0.195 µM.

For the molecule `O=C1C=CC(=O)C2C1C1(Cl)C(Cl)=C(Cl)C2(Cl)C1(Cl)Cl` (stereo not given), the AC50 was 8.65 µM.

`Cc1ccc(N=Cc2cc(Cc3ccccc3Cl)cc([N+](=O)[O-])c2O)c(O)c1`: the AC50 was 0.216 µM.

As for `Cc1nn(-c2nc3ccccc3[nH]2)c(=O)c2ccccc12`, the AC50 is 1.84 µM.

For the molecule `Cc1ccc(NC(=O)c2cc(N3C(=O)C=CC3=O)ccc2N2CCOCC2)cc1`, the AC50 was 0.605 µM.

Consider `O=[N+]([O-])c1ccc(NC(c2ccccc2)c2ccc3cccnc3c2O)cc1` (stereo not given), for which the AC50 was less than 0.195 µM.

Take `O=C(NNC1=C(C(=O)C(F)(F)F)CCC1)c1ccc(Br)cc1`: the AC50 was 0.759 µM.

With `Oc1c(Br)cc(Br)cc1C=NCc1ccccc1`, the concentration at half-maximal activity (AC50) was 7.51 µM.

On to `Cc1ccc(-n2nnnc2C(Cl)c2nnnn2-c2ccc(C)cc2)cc1`, for which the concentration at half-maximal activity (AC50) is 0.903 µM.

For `Clc1ccc(C(c2ccc(Cl)cc2)n2cc[n+](CC(OCc3ccc(Cl)cc3Cl)c3ccc(Cl)cc3Cl)c2)cc1` (stereo not given), the AC50 was 5.47 µM.

Regarding `CN(C)/C=C/C(=O)c1ccc(N2CCN(c3ncc(C(F)(F)F)cc3Cl)CC2)cc1`, the concentration at half-maximal activity (AC50) was 4.16 µM.

As to `CCN1/C(=C/c2ccc3cc(C)ccc3[n+]2CC)Sc2cc(C)c(C)cc21`, the AC50 is 3.25 µM.

Take `Cc1ccc(NC(=O)c2ccc(Cl)c(N3C(=O)C=CC3=O)c2)cc1`: the AC50 was 2.38 µM.

On to `CCCCCCCCCCOC(=O)Cn1c(COc2ccc(OC)cc2)[n+](C)c2ccccc21`, for which the AC50 was 24.4 µM.

Consider `O=C(Nc1ccccc1)c1nnsc1S(=O)(=O)c1ccc(Cl)cc1`, for which the AC50 is 0.435 µM.

In the case of `O=C1C2C3C=CC(C3)C2C(=O)N1CN(Cc1ccccc1)CN1C(=O)C2C3C=CC(C3)C2C1=O` (stereo not given), the AC50 was 16.6 µM.

For the molecule `COc1ccc(-c2nnc(SCC(=O)Oc3ccc(C)cc3)o2)cc1`, the AC50 was 2.02 µM.

Take `O=S(=O)(NC1CCCCCC1)c1ccc(Br)s1`: the AC50 is 3.13 µM.

With `O=[N+]([O-])c1ccc(O)c(C2CCCCC2)c1`, the AC50 was 4.84 µM.

For `O=C(c1ccccc1)c1cc(Cl)ccc1N1C(=O)C=CC1=O`, the concentration at half-maximal activity (AC50) is 0.432 µM.

On to `Cc1ccc(S(=O)(=O)Nc2cc(Cl)c(O)c3ncccc23)cc1`, for which the half-maximal activity concentration (AC50) is 2.09 µM.

For the molecule `COc1ccc(N=Cc2cc(Cc3ccccc3Cl)cc([N+](=O)[O-])c2O)cc1OC`, the AC50 was 1.5 µM.

As for `C/C(=N\Nc1ncc(Cl)cc1Cl)c1ccccn1`, the AC50 is 1.8 µM.

As for `O=C(Nc1nc(-c2ccccn2)cs1)c1ncc(Cl)c(Cl)c1Cl`, the AC50 is 2.9 µM.

With `Nc1c(C(=O)Nc2ccc3c(c2)OCCO3)nnn1Cc1ccccc1Cl`, the half-maximal activity concentration (AC50) is 5.48 µM.

In the case of `COc1ccc2c(c1)CCc1c(C(=O)N3CCc4ccccc4C3)noc1-2`, the concentration at half-maximal activity (AC50) is 4.5 µM.

Consider `Cc1cccc(NC(=O)c2nc(S(=O)(=O)Cc3ccccc3)ncc2Cl)c1`, for which the AC50 is 3.15 µM.

Take `CCC(C)(C)n1nnnc1C(c1cccnc1)N1CCC(Cc2ccccc2)CC1` (stereo not given): the AC50 is 1.52 µM.

For `Oc1ccccc1N=Nc1nc(-c2ccccc2)c(-c2ccccc2)[nH]1`, the half-maximal activity concentration (AC50) was 1.98 µM.

On to `CCc1sc(C(=O)Nc2nc(-c3ccccn3)cs2)cc1C`, for which the AC50 was 8.12 µM.

Staying with this experiment, now noted: yeast expressing the parasite Hsp90, ATP luminescence, at 26 µM (top of the series).
Regarding `O=C(CCN1C(=O)/C(=C/c2cccs2)SC1=S)NC1=NCCS1`, the activity change, negative = inhibition is 60.4% (inactive).
